What was measured:
Type in all cases: cell-based
[1] = test system: carbapenem-resistant Acinetobacter baumannii (KUMC.2014.90); experiment: Rezazurin assay, MIC and MBC, carbapenem-resistant strain KUMC.2014.90
[2] = test system: Acinetobacter baumannii, which is a normal strain; experiment: Rezazurin assay, MIC and MBC, normal strain (control)
[3] = test system: carbapenem-resistant Acinetobacter baumannii (KUMC.2014.91); experiment: Rezazurin assay, MIC and MBC, carbapenem-resistant strain KUMC.2014.91

MIC 50% ([1]; Acinetobacter baumannii (KUMC.2014.90), 50% inhibitory concentration, testing range 0.45~500): No effect
MIC 80% ([1]; Acinetobacter baumannii (KUMC.2014.90), 80% inhibitory concentration, testing range 0.45~500): No effect
MIC 50% ([3]; Acinetobacter baumannii (KUMC.2014.91), 50% inhibitory concentration, testing range 0.45~500): No effect
MIC 80% ([3]; Acinetobacter baumannii (KUMC.2014.91), 80% inhibitory concentration, testing range 0.45~500): No effect
Compound: CC1(C)S[C@@H]2[C@H](NC(=O)[C@H](N)c3ccccc3)C(=O)N2[C@H]1C(=O)O [Ampicillin]
MBC ([1]; Acinetobacter baumannii (KUMC.2014.90), testing range 0.45~500): No effect
growth inhibition (in words) ([1]; carbapenem-resistant KUMC.2014.90 strain): unable to inhibit the growth
growth inhibition (in words) [2]: inhibited the growth
MIC50 ([2]; 50% inhibitory concentration, testing range 0.45~500): < 31.3 mg/L
MIC80 ([2]; 80% inhibitory concentration, testing range 0.45~500): < 62.5 mg/L
MBC ([2]; testing range 0.45~500): < 62.5 mg/L
MBC ([3]; Acinetobacter baumannii (KUMC.2014.91), testing range 0.45~500): No effect
growth inhibition (in words) ([3]; carbapenem-resistant KUMC.2014.91 strain): unable to inhibit the growth

Reference: patent US10792340B2, “Antibacterial composition for combating carbapenem-resistant gram-negative bacteria comprising ADK protein as active ingredient” (KONKUK UNIVERSITY GLOCAL INDUSTRY-ACADEMIC COLLABORATION …, priority 2015, dated 2020)
